pIC50: −log10 of the molar value.
Columns and labels:
[1] = target: T1, hL-CPT1 (Homo sapiens, UniProt P50416); assay: hL-CPT1 inhibition (spectrophotometric DTNB CPT activity assay); type: biochemical; details: human liver CPT1 expressed in P. pastoris, cell extract; carnitine 500 μM, palmitoyl-CoA 80 μM, DTNB 300 μM
T1 construct: made in house; host or cells: Pichia pastoris strain X-33 (pGAPZB/pGAPZA), crude cell-free extract
T1 sequence (P50416 1-773): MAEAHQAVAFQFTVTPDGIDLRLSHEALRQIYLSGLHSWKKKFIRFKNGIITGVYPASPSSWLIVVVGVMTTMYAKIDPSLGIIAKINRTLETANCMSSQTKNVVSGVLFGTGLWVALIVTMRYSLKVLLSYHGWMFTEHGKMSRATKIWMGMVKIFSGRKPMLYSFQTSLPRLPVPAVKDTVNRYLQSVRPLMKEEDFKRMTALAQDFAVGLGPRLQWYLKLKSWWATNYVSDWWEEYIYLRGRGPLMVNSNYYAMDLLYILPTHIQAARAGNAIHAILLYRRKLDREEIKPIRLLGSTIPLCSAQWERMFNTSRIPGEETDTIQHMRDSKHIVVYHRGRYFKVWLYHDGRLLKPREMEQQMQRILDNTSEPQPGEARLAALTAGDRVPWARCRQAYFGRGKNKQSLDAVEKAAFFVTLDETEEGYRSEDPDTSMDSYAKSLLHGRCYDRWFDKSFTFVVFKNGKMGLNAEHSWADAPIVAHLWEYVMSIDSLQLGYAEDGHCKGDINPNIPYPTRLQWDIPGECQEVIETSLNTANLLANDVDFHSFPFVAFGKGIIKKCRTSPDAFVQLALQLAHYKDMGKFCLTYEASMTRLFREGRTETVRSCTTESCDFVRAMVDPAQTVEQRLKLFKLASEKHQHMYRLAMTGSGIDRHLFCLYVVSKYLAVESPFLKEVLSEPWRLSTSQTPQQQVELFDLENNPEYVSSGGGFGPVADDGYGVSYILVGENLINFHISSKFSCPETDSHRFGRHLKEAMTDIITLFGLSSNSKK
Experimental: (§1) The following tests were carried out in order to determine the activity of the compounds of the present invention. Background information on the performed assays can be found in: Jackson et al., 1999, Biochem. J. 341, 483-489 and Jackson et al., 2000, J. Biol. Chem. 275, 19560-19566.
(§2) Human and rat CPT2- and liver CPT1 cDNAs, and human muscle CPT1 cDNA were subcloned in pGAPZB or pGAPZA, respectively. These plasmids were used to transform P. pastoris strain X-33 via electroporation after the preparation of electrocompetent cells. High copy number clones were selected where necessary using 0.5 or 1 mg/ml Zeocin. Cultures for activity measurements were induced for 16 h in YPD medium (1% yeast extract, 2% peptone, 2% glucose). Crude cell extracts were prepared by disrupting the cells with glass beads or French Press, depending on fermenter sizes. After centrifugation, the cell-free extracts were resuspended in cell breaking buffer (50 mM Tris, pH7.4, 100 mM KCl, 1 mM EDTA) in the presence of a protease inhibitor cocktail, before aliquoting and freezing at −20° C.
(§3) CPT activity was measured using a spectrophotometric assay using 5,5′-dithio-bis-(2-nitrobenzoic acid) (DTNB) also called Ellman's reagent. The HS-CoA released on the formation of acylcarnitine from carnitine (500 μM) and palmitoyl-CoA (80 μM) reduced DTNB (300 μM) forming 5-mercapto-2-nitrobenzoic acid which absorbed at 410 nm with a molar extinction coefficient of 13600 M^−1 cm^−1. The assay buffer contained 120 mM KCl, 25 mM Tris, pH 7.4, 1 mM EDTA. This assay was used for the identification of CPT inhibitors, particularly/preferentially CPT2-selective inhibitors, versus the liver and muscle CPT1 isoforms.

[2] = target: T2, hCPT2 (Homo sapiens, UniProt P23786); assay: hCPT2 inhibition (spectrophotometric DTNB CPT activity assay); type: biochemical; details: human CPT2 expressed in P. pastoris, cell extract; carnitine 500 μM, palmitoyl-CoA 80 μM, DTNB 300 μM
T2 construct: made in house; host or cells: Pichia pastoris strain X-33 (pGAPZB/pGAPZA), crude cell-free extract
T2 sequence (P23786 26-658): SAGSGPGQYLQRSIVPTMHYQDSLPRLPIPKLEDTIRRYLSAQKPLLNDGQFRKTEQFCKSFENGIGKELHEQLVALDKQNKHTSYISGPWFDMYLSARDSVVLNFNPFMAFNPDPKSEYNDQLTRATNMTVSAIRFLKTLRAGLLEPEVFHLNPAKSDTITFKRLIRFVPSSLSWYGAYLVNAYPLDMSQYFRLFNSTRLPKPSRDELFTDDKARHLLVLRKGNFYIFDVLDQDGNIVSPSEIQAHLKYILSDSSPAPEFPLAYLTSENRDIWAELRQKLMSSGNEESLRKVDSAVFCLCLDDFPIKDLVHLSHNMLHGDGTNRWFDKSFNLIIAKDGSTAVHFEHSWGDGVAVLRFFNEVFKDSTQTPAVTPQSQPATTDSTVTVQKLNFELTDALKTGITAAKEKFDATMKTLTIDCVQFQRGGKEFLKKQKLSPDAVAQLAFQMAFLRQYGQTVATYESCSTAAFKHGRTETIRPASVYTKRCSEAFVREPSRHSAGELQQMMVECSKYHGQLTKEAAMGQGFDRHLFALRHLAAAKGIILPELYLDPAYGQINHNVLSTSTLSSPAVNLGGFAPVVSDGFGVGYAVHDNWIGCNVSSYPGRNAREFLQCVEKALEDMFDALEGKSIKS
Experimental: as §1, §2, §3

| SMILES | pIC50 [1] | pIC50 [2] |
| --- | --- | --- |
| C[N+](C)(C)C[C@@H](CC(=O)[O-])NC(=O)CCCCCCCCCCc1ccccc1 [Example 33, (R)-3-(11-Phenyl-undecanoylamino)-4-trimethylammonio-butyrate] | 5.22 | 6.31 |
| C[N+](C)(C)C[C@@H](CC(=O)[O-])NC(=O)CCCCCCCOCc1ccc(-c2ccccc2)cc1 [Example 9, (R)-3-[8-(Biphenyl-4-ylmethoxy)-octanoylamino]-4-trimethylammonio-butyrate] | 5.96 | 8.92 |
| C[N+](C)(C)C[C@@H](CC(=O)[O-])NC(=O)CCCCCCCCCc1cccc(F)c1 [Example 26, (R)-3-[10-(3-Fluoro-phenyl)-decanoylamino]-4-trimethylammonio-butyrate] | 5.74 | 8.09 |
| C[N+](C)(C)C[C@@H](CC(=O)[O-])NC(=O)CCCCCCCOCc1cccc2ccccc12 [Example 12, (R)-3-[8-(Naphthalen-1-ylmethoxy)-octanoylamino]-4-trimethylammonio-butyrate] | < 5.00 | 7.39 |
| C[N+](C)(C)C[C@@H](CC(=O)[O-])NC(=O)CCCCCCCOCc1cccc(F)c1 [Example 15, (R)-3-[8-(3-Fluoro-benzyloxy)-octanoylamino]-4-trimethylammonio-butyrate] | 5.49 | 7.53 |
| C[N+](C)(C)C[C@@H](CC(=O)[O-])NC(=O)CCCCCCCOCc1ccc(C(F)(F)F)cc1 [Example 6, (R)-3-[8-(4-Trifluoromethyl-benzyloxy)-octanoylamino]-4-trimethylammonio-butyrate] | 5.36 | 7.49 |
| C[N+](C)(C)C[C@@H](CC(=O)[O-])NC(=O)CCCCCCCOCc1ccc(F)cc1F [Example 3, (R)-3-[8-(2,4-Difluoro-benzyloxy)-octanoylamino]-4-trimethylammonio-butyrate] | 5.95 | 6.53 |
| C[N+](C)(C)C[C@@H](CC(=O)[O-])NC(=O)CCCCCCCCCc1cccc2ccccc12 [Example 24, (R)-3-(10-Naphthalen-1-yl-decanoylamino)-4-trimethylammonio-butyrate] | 5.40 | 7.67 |
| C[N+](C)(C)C[C@@H](CC(=O)[O-])NC(=O)CCCCCCCOCc1cc(F)ccc1F [Example 2, (R)-3-[8-(2,5-Difluoro-benzyloxy)-octanoylamino]-4-trimethylammonio-butyrate] | 5.25 | 6.90 |
| C[N+](C)(C)C[C@@H](CC(=O)[O-])NC(=O)CCCCCCCCCCCc1ccccc1 [Example 34, (R)-3-(12-Phenyl-dodecanoylamino)-4-trimethylammonio-butyrate] | 6.37 | 7.78 |
| C[N+](C)(C)C[C@@H](CC(=O)[O-])NC(=O)CCCCCCCOCc1ccc(C(F)(F)F)c(F)c1 [Example 7, (R)-3-[8-(3-Fluoro-4-trifluoromethyl-benzyloxy)-octanoylamino]-4-trimethylammonio-butyrate] | 5.65 | 7.49 |
| C[N+](C)(C)C[C@@H](CC(=O)[O-])NC(=O)CCCCCCCCc1ccccc1 [Example 32, (R)-3-(9-Phenyl-nonanoylamino)-4-trimethylammonio-butyrate] | 5.62 | 6.61 |
| COc1ccc(COCCCCCCCC(=O)N[C@H](CC(=O)[O-])C[N+](C)(C)C)cc1 [Example 8, (R)-3-[8-(4-Methoxy-benzyloxy)-octanoylamino]-4-trimethylammonio-butyrate] | 5.14 | 7.27 |
| C[N+](C)(C)C[C@@H](CC(=O)[O-])NC(=O)CCCCCCCOCc1ccc(F)c(F)c1 [Example 1, (R)-3-[8-(3,4-Difluoro-benzyloxy)-octanoylamino]-4-trimethylammonio-butyrate] | 5.66 | 7.14 |
| C[N+](C)(C)C[C@@H](CC(=O)[O-])NC(=O)CCCCCCCCCc1ccc(C(F)(F)F)cc1 [Example 25, (R)-4-Trimethylammonio-3-[10-(4-trifluoromethyl-phenyl)-decanoylamino]-butyrate] | 5.51 | 6.90 |
| C[N+](C)(C)C[C@@H](CC(=O)[O-])NC(=O)CCCCCCCCCc1ccccc1 [Example 18, (R)-3-(10-Phenyl-decanoylamino)-4-trimethylammonio-butyrate] | 6.21 | 7.84 |
| C[N+](C)(C)C[C@@H](CC(=O)[O-])NC(=O)CCCCCCCCCc1ccsc1 [Example 28, (R)-3-(10-Thiophen-3-yl-decanoylamino)-4-trimethylammonio-butyrate] | 6.07 | 7.69 |
| C[N+](C)(C)C[C@@H](CC(=O)[O-])NC(=O)CCCCCCCc1ccccc1 [Example 31, (R)-3-(8-phenyl-octanoylamino)-4-trimethylammonio-butyrate] | 5.86 | 6.27 |

Source: patent US8349893B2, “4-trimethylammonio-butyrates as CPT2 inhibitors” (Hoffmann-La Roche Inc., priority 2008, dated 2013)
